# Source: patent US8017786B2, “Substituted β-phenyl-α-hydroxy-propanoic acid, synthesis method and use thereof” (Northwest University, priority 2006, dated 2011)
# Experiments:
# Type in all cases: in vivo, rat
# malondialdehyde (MDA) = assay: Serum MDA content in rats with myocardial ischemia; conditions: for MDA: serum, 24 h after ligation
# Protocol: (§1) At 0.5 h after the rats of these groups were administered intragastrically, the standard II lead electrocardiogram (before modeling) was recorded, and the height of ST-T segment was measured. The rats of sham operation group were then subjected to coronary artery braid without ligation, and the rats of other groups were subjected to coronary artery ligation in accordance with the following method to establish cute myocardial ischemia models. The rats were subjected to etherization, fixed at supine position, and their normal electrocardiograms (before modeling) were recorded. The skin of left thorax was incised under aseptic conditions, the 4th intercostal muscles were isolated in blunt way, the heart was extruded by light pressure to the right thorax, the left anterior descending coronary artery was ligated at a position 2˜3 mm departing from the left coronary artery origin and between the pulmonary conus and the left auricle of heart, then the heart was sent back to thorax cavity immediately and sutured the incision. Penicillin was smeared topically for the prevention of infections. After operation, the electrocardiogram of postischemia was recorded immediately (at 0 min after modeling), and the height of ST-T segment was measured.
# creatine kinase (CK) = assay: Serum CK activity in rats with myocardial ischemia; conditions: for CK: serum, 24 h after ligation
# Protocol: as §1
# Bax = assay: Immunohistochemistry protein expression in I/R myocardial tissue: Bax; conditions: for Bax protein expression, OD value: 5 days, ischemia 30 min, reperfusion 2 h
# Protocol: (§2) 52 SD rats having a body weight of 220±20 g were randomly divided into model control group, salviannic acid injection group (in 1 mL/kg), and group of bornyl β-(3,4-dihydroxylphenyl)-α-hydroxylpropionate ester at a small, middle and large dose (ip 5, 15, 35 mg/kg). The rats of the normal group and the model control group were ip administered with equal-volume of physiologic saline. The rats of all groups were administered for consecutive 5 days. When the rats were administered for the last time, they were simultaneously anesthetized with 1.5% pentobarbital sodium (ip 45 mg/kg), then a catheter was inserted into the right carotid artery, and connected via a transducer to an eight-channeled physiological recorder. Tracheal cannula was performed, and the ventilation rate was maintained at 60 times/min. The chest was opened, a 6/0 suture was used to form a loop at a site 1˜2 mm from the root of the anterior descending coronary artery, and a plastic pipe was introduced through the loop, then the loop was tightened up. The change of electrocardiogram was observed. An increase or decrease of ST indicated the success of ligation. The color of the myocardial tissue below the ligation suture became darker. 30 minutes later, the plastic pipe was pulled out to allow coronary artery blood flowing again and cause hyperemia of local tissue during reperfusion. For the groups subjected to ischemia for 30 min and reperfusion for 30 min, the myocardial infarction areas were recorded before the test, after ischemia for 1 min and 30 min, and after reperfusion for 30 min; for the groups subjected to ischemia for 30 min and reperfusion for 2 h, cardiac tissue samples were taken and fixed using 10% formalin, embedded with paraffin, serially sliced into sections with a thickness of 4 μm, and separately subjected to immunohistochemistry tests; the rats of the sham operation group were subjected only to the introduction of suture but their coronary arteries were not ligated.
# Standard immunohistochemistry ABC and SP methods were employed for staining. Bax: anti-rabbit polyclonal antibody (Santa CruzBio. Inc.) at a dilution of 1:200; […]: anti-rabbit polyclonal antibody (TBD Tianjin Biotechnological Center). At a dilution of […]; caspase-3: anti-rabbit polyclonal antibody (Normarkers Fromont, Calif.), at a dilution of 1:200; MMP-2: anti-murine monoclonal antibody (NormarkersFromont, Calif.) at a dilution of 1:200; PPARγ: anti-caprine polyclonal antibody (Santa Cruz Bio. Inc.), at a dilution of 1:500. The specific procedures were performed in accordance with the instructions of the ABC and SP kits, DAB was used for color development, and neutral resin was used for mounting. PBS was used instead of the first antibody as a negative control. Cells with positive expression of the test polypeptides were of brown-yellow color, with MMP-2 protein being present in acytoplasm, Bcl-2 expressed in nuclear membrane and cytoplasm, Bax mainly in cytoplasm and partially in nucleus, and caspase-3 mainly in nucleus and partially in cytoplasm. CMIAS image analysis system was used for random selection of fields of slices and automatic selection of sites for analysis, and statistic analysis was performed by using mean optical density values or integral optical density values of the obtained myocardial tissue slices.
# [1] = test system: rats with acute myocardial ischemia; assay: ST-T segment of ECG in rats with myocardial ischemia
# Protocol: as §1
# PPARγ = assay: Immunohistochemistry protein expression in I/R myocardial tissue: PPARγ; conditions: 5 days, ischemia 30 min, reperfusion 2 h
# Protocol: as §2
# Standard immunohistochemistry ABC and SP methods were employed for staining. Bax: anti-rabbit polyclonal antibody (Santa CruzBio. Inc.) at a dilution of 1:200; […]: anti-rabbit polyclonal antibody (TBD Tianjin Biotechnological Center). At a dilution of […]; caspase-3: anti-rabbit polyclonal antibody (Normarkers Fromont, Calif.), at a dilution of 1:200; MMP-2: anti-murine monoclonal antibody (NormarkersFromont, Calif.) at a dilution of 1:200; PPARγ: anti-caprine polyclonal antibody (Santa Cruz Bio. Inc.), at a dilution of 1:500. The specific procedures were performed in accordance with the instructions of the ABC and SP kits, DAB was used for color development, and neutral resin was used for mounting. PBS was used instead of the first antibody as a negative control. […]
# [2] = test system: superoxide dismutase (SOD); assay: Serum SOD activity in rats with myocardial ischemia; conditions: for SOD: serum, 24 h after ligation
# Protocol: as §1
# [3] = 10 mg/kg intragastric, 0 min after modeling
# [4] = 10 mg/kg intragastric, 24 h after modeling
# [5] = 20 mg/kg intragastric, 0 min after modeling
# [6] = 20 mg/kg intragastric, 24 h after modeling
# [7] = 40 mg/kg intragastric, 0 min after modeling
# [8] = 40 mg/kg intragastric, 24 h after modeling
structure (smiles),measurement,setting,value
"CC1(C)C2CCC1(C)C(OC(=O)C(O)Cc1ccc(O)c(O)c1)C2 (stereo not drawn) [bornyl salvianate ester, bornyl β-(3,4-dihydroxylphenyl)-α-hydroxylpropionate ester]",MDA,malondialdehyde (MDA); 10 mg/kg intragastric,21.69 ± 27.94 nmol/mL
same,MDA,malondialdehyde (MDA); 20 mg/kg intragastric,10.60 ± 11.156 nmol/mL
same,MDA,malondialdehyde (MDA); 40 mg/kg intragastric,9.43 ± 6.57 nmol/mL
same,serum MDA content (in words),"malondialdehyde (MDA); middle and large dose groups, no significant difference from model control",decrease tendency
same,CK,creatine kinase (CK); 10 mg/kg intragastric,1214.2 ± 160.2 U/L
same,CK,creatine kinase (CK); 20 mg/kg intragastric,894.5 ± 176.3 U/L
same,CK,creatine kinase (CK); 40 mg/kg intragastric,778.0 ± 177.1 U/L
same,activity of creatine kinase (CK) (in words),"creatine kinase (CK); all dose groups, 24 h later",decreased
same,"Bax protein expression, OD value",Bax; 5 mg/kg ip,0.12 ± 0.03
same,"Bax protein expression, OD value",Bax; 15 mg/kg ip,0.09 ± 0.05
same,"Bax protein expression, OD value",Bax; 35 mg/kg ip,0.07 ± 0.03
same,expression of Bax protein (in words),Bax; myocardial cells I/R,reduce the expression of Bax and caspase-3 proteins
same,Elevation of ST-T segment,[1]; [3],0.24 ± 0.24 mV
same,"Elevation of ST-T segment, Change rate",[1]; [3],95.00 ± 78.34%
same,Elevation of ST-T segment,[1]; [4],0.17 ± 0.09 mV
same,"Elevation of ST-T segment, Change rate",[1]; [4],49.00 ± 36.27%
same,Elevation of ST-T segment,"[1]; 10 mg/kg intragastric, before modeling",0.21 ± 0.06 mV
same,Elevation of ST-T segment,[1]; [5],0.13 ± 0.16 mV
same,"Elevation of ST-T segment, Change rate",[1]; [5],91.61 ± 116.85%
same,Elevation of ST-T segment,[1]; [6],0.11 ± 0.10 mV
same,"Elevation of ST-T segment, Change rate",[1]; [6],60.77 ± 39.69%
same,Elevation of ST-T segment,"[1]; 20 mg/kg intragastric, before modeling",0.17 ± 0.07 mV
same,Elevation of ST-T segment,[1]; [7],0.36 ± 0.17 mV
same,"Elevation of ST-T segment, Change rate",[1]; [7],103.87 ± 148.26%
same,Elevation of ST-T segment,[1]; [8],0.18 ± 0.07 mV
same,"Elevation of ST-T segment, Change rate",[1]; [8],29.01 ± 18.99 %
same,Elevation of ST-T segment,"[1]; 40 mg/kg intragastric, before modeling",0.21 ± 0.06 mV
same,"PPARγ protein expression, OD value",PPARγ; 5 mg/kg ip,0.16 ± 0.05
same,"PPARγ protein expression, OD value",PPARγ; 15 mg/kg ip,0.18 ± 0.06
same,"PPARγ protein expression, OD value",PPARγ; 35 mg/kg ip,0.18 ± 0.10
same,SOD,[2]; 10 mg/kg intragastric,117.66 ± 31.97 U/mL
same,SOD,[2]; 20 mg/kg intragastric,111.32 ± 20.36 U/mL
same,SOD,[2]; 40 mg/kg intragastric,119.63 ± 23.53 U/mL
same,superoxide dismutase (SOD) (in words),[2]; especially in the large dose group,increased
